From PMC3103436 (Journal of Translational Medicine, 2011)

Assays:
HLMs = assay: Chemical inhibition assays of BBR metabolism in HLMs; type: in vitro ADME, human; details: BBR 15 μM, inhibitor 5 μM, 30 min, control without inhibitor = 100%
Procedure: (§1) The incubation was performed in duplicates.
The incubations were performed in duplicates.
(§2) The flow-rate was 0.2 ml/min. […] The MS was operated in positive ESI mode. […] Data were analyzed by Xcalibur 1.2 software.

[1] = ref [34]; cited from earlier work
InsR mRNA = InsR mRNA real-time RT-PCR in HepG2 cells; type: cell-based, human; details: HepG2, 20 μM, 8 hrs, fold of untreated control
Procedure: (§3) The Human hepatoma cell line HepG2 was obtained from the American Tissue Culture Collection (ATCC, USA). HepG2 cells were grown in Eagle's Minimum Essential Medium (GIBCO) supplemented with 10% fetal bovine serum (GIBCO), 1% non-essential amino acids (GIBCO) and 1% antibiotics (100 units/ml of penicillin and 100 μg/ml of streptomycin), and incubated at 37°C in a humidified atmosphere with 5% CO2.
(§4) The study compounds were diluted in culture medium prior to use.
(§5) Total cellular RNAs were isolated by the Ultraspec RNA lysis solution (Biotecxs Laboratory, Houston, TX) by following the vender's instruction. Total RNAs were reversely transcribed into cDNAs using the Reverse Transcription System (Promega, Madison, WI). Quantitative real time PCR was performed with these cDNAs as described previously, with β-Actin as an internal control. Normalized InsR or LDLR mRNA expression levels were plotted as fold of the untreated control. The primers used were described previously.

[2] = oral administration, cited from earlier work
AMPK = assay: AMPK-alpha phosphorylation immunoblot in HepG2 cells; type: cell-based, human; details: HepG2, 20 μM, 24 hrs
Procedure: as §3, §4
Sample cells were rinsed with phosphate-buffered saline and lysed in SDS-PAGE loading buffer. Cell lysates were subjected to 8% SDS-PAGE for protein separation, and protein bands were transferred onto polyvinylidene difluoride membranes (Millipore). The amount of protein and extent of phosphorylation were estimated using the following primary rabbit antibodies, anti-phospho-AMPK-α-Thr-172 antibody, anti-AMPK-α antibody as well as anti-β-actin antibody (Cell signaling Technology, USA). The secondary antibody was peroxidase-conjugated goat anti-rabbit antibody (Cell signaling Technology, USA).

LDLR = assay: Double immune-staining and flow cytometry, cell-surface protein expression in HepG2; type: cell-based, human; details: HepG2, 8 hrs; BBR 27 μM, simvastatin 1 μM, rosiglitazone 10 μM
Procedure: (§6) The Human hepatoma cell line HepG2 was obtained from the American Tissue Culture Collection (ATCC, USA). […] The study compounds were diluted in culture medium prior to use. […] The corresponding isotype-matched, nonspecific mouse and rabbit IgGs were used respectively as controls for nonspecific staining. After washing in PBS, cells were stained with a fluorescein isothiocyanate (FITC)-conjugated goat anti-mouse IgG (green color, Santa Cruz Biotechnology), as well as a tetramethyl rhodamine isothiocyanate (TRITC)-conjugated goat anti-rabbit IgG (red color, Santa Cruz Biotechnology). The fluorescence intensities were analyzed in a FACS (FACSort, Becton Dickinson).

InsR = assay: as above; type: cell-based, human; details: HepG2, 8 hrs; BBR 27 μM, simvastatin 1 μM, rosiglitazone 10 μM
Procedure: as §6

CYP2C9 = target: T1, CYP2C9 (Homo sapiens, UniProt P11712); assay: BBR metabolism in recombinant human CYP450 isoenzyme; type: in vitro ADME; details: BBR 20 μM, 50 pmol/ml rCYP450, 30 min
T1 construct: purchased BD Gentest; host or cells: baculovirus-insect cells
T1 sequence (P11712 whole entry): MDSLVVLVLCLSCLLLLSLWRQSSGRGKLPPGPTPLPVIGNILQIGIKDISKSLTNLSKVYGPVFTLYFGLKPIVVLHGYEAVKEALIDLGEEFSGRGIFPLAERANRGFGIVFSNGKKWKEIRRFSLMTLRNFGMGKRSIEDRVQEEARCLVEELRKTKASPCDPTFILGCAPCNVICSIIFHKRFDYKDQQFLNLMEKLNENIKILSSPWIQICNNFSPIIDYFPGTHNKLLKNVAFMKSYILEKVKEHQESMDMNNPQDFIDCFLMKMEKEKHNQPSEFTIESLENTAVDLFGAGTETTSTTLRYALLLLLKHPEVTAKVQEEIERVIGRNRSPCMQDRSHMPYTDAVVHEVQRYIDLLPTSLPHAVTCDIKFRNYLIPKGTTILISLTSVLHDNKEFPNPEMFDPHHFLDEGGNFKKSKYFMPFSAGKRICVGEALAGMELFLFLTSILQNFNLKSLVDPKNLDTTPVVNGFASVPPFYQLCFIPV
Procedure: The experiment was performed with the condition described in the method using HLMs for transformation. […] Control microsome prepared from insect cells, which were infected with wild-type baculovirus, severed as a negative control. The incubation was performed in duplicates.
Sample analysis was performed using an LC-MS/MS system (Thermo-Finnigan, San Jose, CA, USA), which consisted of a Surveyor LC pump with an on-line degasser, a Surveyor autosampler and a TSQ Quantum triple-quadrupole mass spectrometer equipped with an ESI probe. A Waters XTerra® MS C18 (2.1 ×50 mm, 3.5 μm) column (Milford, MA, USA) was used for separation at 25°C. The mobile phase consisted of 0.2% acetic acid in water (A) and 100% acetonitrile (B). The flow-rate was 0.2 ml/min. […] The column was allowed to equilibrate for 10 min after each run. Only the data from 2 min to 15 min was acquired by MS. The MS was operated in positive ESI mode. Nitrogen was used as both the sheath and auxiliary gas at a pressure of 35 and 10 arbitrary units, respectively. The spray voltage was set at 4.0 kV and the capillary temperature was at 270°C. […] The most abundant product ion of each chemical was chosen for selected reaction monitoring (SRM). Data were analyzed by Xcalibur 1.2 software.

LDLR mRNA = LDLR mRNA real-time RT-PCR in HepG2 cells; type: cell-based, human; details: HepG2, 40 μM, 8 hrs
Procedure: as §3, §4, §5

[3] = BBR metabolites in rat liver after oral BBR, LC-MS/MS; type: in vivo, Male Wistar rats; details: 3 hrs after BBR oral administration 200 mg/kg; for Detection of metabolite in rat liver: LC-MS/MS; for Relative level of metabolite in rat liver: among M1-M4
Procedure: Male Wistar rats (200-240 g, 8-week-old) purchased from Vital River Laboratories (Beijing, China) fasted overnight and were free access to water before drug administration. […] 2 g of the liver sample was washed with 5 mL normal saline, cut into small pieces and extracted with 3-fold volume acetonitrile. After vortexed for 3 min, the extract was centrifuged at 16000 g for 15 min at 4°C and the supernatant was diluted with 0.2% acetic acid. Ten microlitre dilution aliquot was injected into the LC-MS/MS system for analysis.
as §2

rCYP450 isoenzymes = assay: Detection of BBR metabolites after incubation with rCYP450 isoenzymes; type: in vitro ADME, human; details: cell-free reaction, LC-MS/MS
Procedure: as §1, §2

human liver microsomes = assay: BBR metabolism in human liver microsomes (HLMs); type: in vitro ADME; details: cell-free reaction, LC-MS/MS
Procedure: Incubation conditions were optimized to ensure the linearity with respect to the microsomal protein concentration and incubation time. […] After incubation of the mixture in a 37°C water bath with opening to the air, the reaction lasted for 30 min and was terminated by addition of 800 μl cold acetonitrile. Internal standard (40 μg/ml ampicillin, dissolved in acetonitrile) was added into the mixture, and then centrifuged at 16000 g for 15 min at 4°C. The supernatant was aspirated, followed by dilution in 0.2% acetic acid. 10 μl of the aliquot was injected into the LC-MS/MS system for analysis. Control samples were incubated without NADPH. The incubation was performed in duplicates.
as §2

| Compound | AMPK activation (AMPK-alpha phosphorylation) (AMPK) | Effect on cell-surface LDLR protein expression (LDLR) | Effect on cell-surface InsR protein expression (InsR) | Effect on LDLR mRNA expression (LDLR mRNA) | Detection of metabolite in rat liver [3] | Detection of metabolite after incubating BBR with rCYP450s (rCYP450 isoenzymes) | Detection of metabolite after incubating BBR with HLMs (human liver microsomes) | also measured |
| --- | --- | --- | --- | --- | --- | --- | --- | --- |
| O=c1cc(-c2ccccc2)oc2c1ccc1ccccc12 [ANF, α-naphthoflavone] |  |  |  |  |  |  |  | Decrease of M2 formation (HLMs): about 40% |
| COc1ccc2cc3[n+](cc2c1OC)CCc1cc2c(cc1-3)OCO2 [BBR, Berberine] | most active compound | up-regulatory effect | up-regulatory effect | strongest up-regulator |  |  |  | Share of BBR entering into blood stream (absorption in human gut) [1]: less than 10%; Increase of InsR mRNA level (InsR mRNA): over 2 folds; Reduction of blood cholesterol, triglyceride and glucose ([2]; patients with hyperlipidemia and type 2 diabetes, ref [2],[3],[5]-[7]): significant reduction; Side-effects on liver, kidney and muscle ([2]; patients, ref [2],[5]): no side-effects; Transformation of BBR into metabolites by CYP2C9 (CYP2C9): very weak effect |
| CC(=O)N1CCN(c2ccc(OCC3COC(Cn4ccnc4)(c4ccc(Cl)cc4Cl)O3)cc2)CC1 (stereo not drawn) [KET, ketoconazole] |  |  |  |  |  |  |  | Decrease of M2 formation (HLMs): not |
| COc1ccc2cc3[n+](cc2c1O)CCc1cc2c(cc1-3)OCO2 [M1, berberrubine] | increased the activity of AMPK but with a less potency |  |  | remained to be active | detectable | not detectable | not found | Relative level of metabolite in rat liver [3]: lowest; LDLR mRNA up-regulating activity as percent of that of BBR (LDLR mRNA): 35% |
| COc1c(O)ccc2cc3[n+](cc12)CCc1cc2c(cc1-3)OCO2 [M2, thalifendine] | increased the activity of AMPK but with a less potency |  |  | remained to be active | detectable | detectable | detectable | Relative level of metabolite in rat liver [3]: highest level; LDLR mRNA up-regulating activity as percent of that of BBR (LDLR mRNA): 26% |
| COc1ccc2cc3[n+](cc2c1OC)CCc1cc(O)c(O)cc1-3 [M3, demethyleneberberine] | not significant |  |  | without effect | detectable | detectable | detectable |  |
| COc1cc2c(cc1O)CC[n+]1cc3c(OC)c(OC)ccc3cc1-2 [M4, jatrorrhizine] | not significant |  |  | without effect | detectable | not detectable | not found |  |
| CN(CCOc1ccc(CC2SC(=O)NC2=O)cc1)c1ccccn1 (stereo not drawn) [rosiglitazone] |  | effect on neither LDLR nor InsR | effect on neither LDLR nor InsR |  |  |  |  |  |
| CCC(C)(C)C(=O)O[C@H]1C[C@@H](C)C=C2C=C[C@H](C)[C@H](CC[C@@H]3C[C@@H](O)CC(=O)O3)[C@H]21 [simvastatin] |  | increased LDLR expression only | not InsR |  |  |  |  |  |
